# Assay results published in patent US12384753B2, “17-beta-hydroxysteroid dehydrogenase type 13 inhibitors and methods of use thereof” (Enanta Pharmaceuticals, Inc., priority 2021, dated 2025).
# Target: Recombinant human HSD17B13 (Homo sapiens (Human), UniProt Q7Z5P4)
# Experiment: HSD17B13 rapid-fire mass spectrometry assay (RF/MS assay)
# Assay type: biochemical
# Conditions: inhibition of HSD17B13; LTB4 10 μM, NAD+ 0.5 mM, RT 3 h; IC50 ranges A-E
# In short: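 Product 12-oxo-LTB4 and substrate LTB4 quantified by RapidFire triple-quad MS in negative mode, giving percent conversion. Reaction: 80 nM recombinant hHSD17B13, 10 μM LTB4, 0.5 mM NAD+, compound up to 100 μM, pH 7.5, RT, 3 h. Variable-slope fit gave IC50; run in duplicate.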
# Sequence of Recombinant human HSD17B13 (Q7Z5P4 20-300): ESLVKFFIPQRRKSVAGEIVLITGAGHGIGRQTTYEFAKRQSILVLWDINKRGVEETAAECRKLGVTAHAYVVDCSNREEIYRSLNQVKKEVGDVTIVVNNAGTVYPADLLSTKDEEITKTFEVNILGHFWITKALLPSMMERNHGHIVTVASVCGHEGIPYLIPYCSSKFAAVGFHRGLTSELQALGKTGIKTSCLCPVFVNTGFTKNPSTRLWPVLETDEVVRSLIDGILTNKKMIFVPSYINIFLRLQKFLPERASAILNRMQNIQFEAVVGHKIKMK
row,SMILES,IC50 [nM]
1,COc1cc(C(=O)O)c(F)cc1NS(=O)(=O)c1csc(-c2ccc(-c3ccc(C45CC6C[C@H](C4)C[C@H](C6)C5)cc3)c(OC)c2)n1 [Example 743],100 to 500
2,COc1cc(C(=O)O)c(F)cc1NS(=O)(=O)c1csc(-c2ccc(-c3ccc(C45CC6C[C@H](C4)C[C@H](C6)C5)cc3)cc2OC)n1 [Example 744],100 to 500
3,COc1cc(C(=O)O)c(F)cc1NS(=O)(=O)c1csc(-c2ccc(C(F)(F)C(F)(F)F)cc2)n1 [Example 745],100 to 500
4,COc1cc(C(=O)O)ccc1NS(=O)(=O)c1cnc(-c2ccc(C3CCC4(CC3)CC4)cc2)s1 [Example 746],100 to 500
5,COc1cc(C(=O)O)ccc1NS(=O)(=O)c1csc(-c2ccc(F)cc2)n1 [Example 749],100 to 500
6,COc1cc(C(=O)O)c(F)cc1NS(=O)(=O)c1csc(-c2ccc(-c3ccc(C45CC6C[C@H](C4)C[C@H](C6)C5)cc3)c(OC(F)(F)F)c2)n1 [Example 750],100 to 500
7,COc1cc(C(=O)O)c(F)cc1NS(=O)(=O)c1csc(-c2ccc(-c3ccc(C4CCC(C(C)C)CC4)cc3C(F)(F)F)cc2C(F)(F)F)n1 (stereo not drawn) [Example 753],100 to 500
8,COc1cc(C(=O)O)c(F)cc1NS(=O)(=O)c1csc(-c2ccc(-c3ccc([C@H]4CC[C@H](C(C)C)CC4)cc3C(F)(F)F)cc2C(F)(F)F)n1 [Example 754],100 to 500
9,COc1cc(C(=O)O)c(F)cc1NS(=O)(=O)c1csc(-c2ccc(C3=CCC4(CC3)CC4)cc2)n1 [Example 758],100 to 500
10,CCCCC[C@H]1CC[C@H](c2ccc(-c3nc(S(=O)(=O)Nc4cc(F)c(C(=O)O)cc4OC)cs3)c(F)c2)CC1 [Example 759],100 to 500
11,COc1cc(C(=O)O)c(F)cc1NS(=O)(=O)c1csc(-c2ccc(-c3ccc(C45CC6C[C@H](C4)C[C@H](C6)C5)cc3)cc2F)n1 [Example 760],< 100
12,COc1cc(C(=O)O)c(F)cc1NS(=O)(=O)c1csc(-c2ccc([C@H]3CC[C@@H](C(C)(C)C)CC3)cc2)n1 [Example 761],100 to 500
13,COc1cc(C(=O)O)c(F)cc1NS(=O)(=O)c1csc(-c2ccc(OC3CCCCC3)cc2)n1 [Example 763],100 to 500
14,COc1cc(C(=O)O)c(F)cc1NS(=O)(=O)c1cnc(-c2ccc(C3=CCC(C(C)C)CC3)cc2)s1 (stereo not drawn) [Example 765],100 to 500
15,COc1cc(C(=O)O)c(F)cc1NS(=O)(=O)c1cnc(-c2ccc(-c3ccc(C45CC6C[C@H](C4)C[C@H](C6)C5)cc3)cc2)s1 [Example 766],100 to 500
16,COc1cc(C(=O)O)c(F)cc1NS(=O)(=O)c1csc(-c2ccc(F)cc2)n1 [Example 767],100 to 500
17,COc1cc(C(=O)O)c(F)cc1NS(=O)(=O)c1cnc(-c2ccc([C@H]3CC[C@H](C(C)C)CC3)cc2)s1 [Example 769],100 to 500
18,COc1cc(C(=O)O)c(F)cc1NS(=O)(=O)c1csc(-c2ccc(-c3ccc(C45CC6C[C@H](C4)C[C@H](C6)C5)cc3)cc2C(F)(F)F)n1 [Example 775],< 100
19,CCC[C@H]1CC[C@H](C2CC=C(c3nc(S(=O)(=O)Nc4cc(F)c(C(=O)O)cc4OC)cs3)CC2)CC1 (stereo partly drawn) [Example 779],100 to 500
20,COc1cc(C(=O)O)c(F)cc1NS(=O)(=O)c1csc(-c2ccc(-c3ccc(C4CCC(C(C)(C)C)CC4)cc3C(F)(F)F)cc2C(F)(F)F)n1 (stereo not drawn) [Example 781],100 to 500
21,COc1cc(C(=O)O)c(F)cc1NS(=O)(=O)c1csc(-c2ccc([C@H]3CC[C@@H](C(C)(C)C)CC3)cc2C(F)(F)F)n1 [Example 782],100 to 500
22,COc1cc(C(=O)O)c(F)cc1NS(=O)(=O)c1csc(-c2ccc(-c3ccc([C@H]4CC[C@@H](C(C)(C)C)CC4)cc3C(F)(F)F)cc2C(F)(F)F)n1 [Example 783],100 to 500
23,CCC1CCC(c2ccc(-c3nc(S(=O)(=O)Nc4cc(F)c(C(=O)O)cc4OC)cs3)c(C(F)(F)F)c2)CC1 (stereo not drawn) [Example 786],100 to 500
24,COc1cc(C(=O)O)c(F)cc1NS(=O)(=O)c1csc(-c2ccc(-c3ccc(-c4ccc(C(F)(F)C(F)(F)F)cc4)cc3C(F)(F)F)cc2C(F)(F)F)n1 [Example 788],100 to 500
25,COc1cc(C(=O)O)c(F)cc1NS(=O)(=O)c1csc(-c2ccc(-c3cc(F)c(C(F)(F)F)c(F)c3)c(OC(C)C)c2F)n1 [Example 790],< 100
26,COc1cc(C(=O)O)c(F)cc1NS(=O)(=O)c1csc(-c2ccc(-c3ccc(C(F)(C(F)(F)F)C(F)(F)F)cc3)c(OC(C)C)c2F)n1 [Example 793],< 100
27,COc1cc(C(=O)O)c(F)cc1NS(=O)(=O)c1csc(-c2ccc(-c3ccc(C4(C(F)(F)F)CC4)cc3)cc2C(F)(F)F)n1 [Example 794],< 100

# Other lines, results leading:
row,IC50 [nM],SMILES
1,< 100,COc1cc(C(=O)O)c(F)cc1NS(=O)(=O)c1csc(-c2ccc(C3=CCC(C(C)(C)C)CC3)cc2)n1 (stereo not drawn) [Example 747]
2,< 100,COc1cc(C(=O)O)c(F)cc1NS(=O)(=O)c1csc(-c2ccc(C3(O)CCC(C)(C)CC3)cc2)n1 [Example 748]
3,< 100,CCC[C@H]1CC[C@H](c2ccc(-c3nc(S(=O)(=O)Nc4cc(F)c(C(=O)O)cc4OC)cs3)c(F)c2)CC1 [Example 755]
4,< 100,COc1cc(C(=O)O)c(F)cc1NS(=O)(=O)c1csc(-c2ccc(-c3ccc(C(C)(F)F)cc3)cc2C(F)(F)F)n1 [Example 756]
5,< 100,COc1cc(C(=O)O)c(F)cc1NS(=O)(=O)c1csc(-c2ccc(-c3ccc(C4CC4)cc3C(F)(F)F)cc2C(F)(F)F)n1 [Example 757]
6,< 100,COc1cc(C(=O)O)c(F)cc1NS(=O)(=O)c1csc(-c2ccc([C@H]3CC[C@H](C(C)(C)C)CC3)cc2)n1 [Example 762]
7,< 100,COc1cc(C(=O)O)c(F)cc1NS(=O)(=O)c1cnc(-c2ccc(C3CCC(C)(C)CC3)cc2)s1 [Example 764]
8,< 100,COc1cc(C(=O)O)c(F)cc1NS(=O)(=O)c1cnc(-c2ccc(-c3ccc(C(F)(F)C(F)(F)F)cc3)cc2)s1 [Example 770]
9,< 100,COc1cc(C(=O)O)c(F)cc1NS(=O)(=O)c1csc(-c2ccc(C3=CCC(C(C)C)CC3)c(F)c2F)n1 (stereo not drawn) [Example 771]
10,< 100,COc1cc(C(=O)O)c(F)cc1NS(=O)(=O)c1csc(-c2ccc([C@H]3CC[C@@H](C(C)C)CC3)c(F)c2F)n1 [Example 772]
11,< 100,COc1cc(C(=O)O)c(F)cc1NS(=O)(=O)c1csc(-c2ccc([C@H]3CC[C@H](C(C)C)CC3)c(F)c2F)n1 [Example 773]
12,< 100,COc1cc(C(=O)O)c(F)cc1NS(=O)(=O)c1csc(-c2ccc(C3=CCC(C(C)C)CC3)cc2)n1 (stereo not drawn) [Example 774]
13,< 100,COc1cc(C(=O)O)c(F)cc1NS(=O)(=O)c1csc(-c2ccc(C3=CCC(C(C)(C)C)CC3)cc2C(F)(F)F)n1 (stereo not drawn) [Example 776]
14,< 100,COc1cc(C(=O)O)c(F)cc1NS(=O)(=O)c1csc(-c2ccc(C3CCC4(CC3)CC4)cc2)n1 [Example 778]
15,< 100,COc1cc(C(=O)O)c(F)cc1NS(=O)(=O)c1csc(-c2ccc([C@H]3CC[C@H](C(C)(C)C)CC3)cc2C(F)(F)F)n1 [Example 780]
16,< 100,COc1cc(C(=O)O)c(F)cc1NS(=O)(=O)c1csc(-c2ccc(-c3ccc(C(F)(F)C(F)(F)F)cc3)cc2C(F)(F)F)n1 [Example 784]
17,< 100,CCC1CC=C(c2ccc(-c3nc(S(=O)(=O)Nc4cc(F)c(C(=O)O)cc4OC)cs3)c(C(F)(F)F)c2)CC1 (stereo not drawn) [Example 785]
18,< 100,CC[C@H]1CC[C@H](c2ccc(-c3nc(S(=O)(=O)Nc4cc(F)c(C(=O)O)cc4OC)cs3)c(C(F)(F)F)c2)CC1 [Example 787]
